Assay results published in US9526680B2, “Method for searching for malodor control agent, malodor control agent, and malodor control method” (Kao Corporation, priority 2010, dated 2016).
“Also recorded” adds a separate entry of the source.

How the values were obtained:
Type in all cases: cell-based
OR2W1 = target: T1, OR2W1 (Homo sapiens, UniProt Q9Y3N9); assay: Luciferase reporter gene assay, OR2W1 expressed in HEK293 cells; conditions: for Response of OR2W1 to the odor substance: fold increase of luciferase emission, 1 mM hexanoic acid or 300 μM nonanoic acid, or concentration series up to 1000 μM
T1 construct: expressed in transfected cells; host or cells: HEK293
T1 sequence (Q9Y3N9 1-320): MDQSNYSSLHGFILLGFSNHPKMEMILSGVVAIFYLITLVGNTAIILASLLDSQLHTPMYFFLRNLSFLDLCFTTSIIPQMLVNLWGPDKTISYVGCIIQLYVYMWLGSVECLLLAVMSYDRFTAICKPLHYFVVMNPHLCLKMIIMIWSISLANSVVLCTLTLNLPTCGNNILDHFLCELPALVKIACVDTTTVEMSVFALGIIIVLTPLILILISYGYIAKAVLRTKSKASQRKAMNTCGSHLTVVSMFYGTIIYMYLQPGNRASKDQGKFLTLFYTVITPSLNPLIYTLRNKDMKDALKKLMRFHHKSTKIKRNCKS
Protocol: (§1) Cloning of human olfactory receptors was performed based on the sequence information registered in GenBank, through PCR with human genomic DNA female (G1521: Promega) as a template. Each of the genes amplified through PCR was inserted into a pENTR vector (Invitrogen) according to an instruction manual. Then, the gene-inserted vector was digested with NotI and AscI, and the obtained fragments were inserted into NotI and AscI sites located downstream of the Flag-Rho tag sequence in the pME18S vector.
(§2) Each of the 350 types of human olfactory receptors was expressed in HEK293 cells. A reaction solution having a composition shown in Table 2 was prepared on a clean bench, and left to stand for 15 minutes. The solution was dispensed to each well of a 96-well plate (BD). Subsequently, […] cells (100 μL, 3×10^5 cells/cm^2) were seeded in each well and cultured for 24 hours in an incubator at 37° C. and under 5% CO2 conditions.
(§3) The olfactory receptor expressed in HEK293 cell was conjugated with cell-intrinsic Gas to activate adenylate cyclase, and thereby the level of intracellular cAMP was increased. For the measurement of the response to odor in this study, the luciferase reporter gene assay was used, in which an increase in the amount of intracellular cAMP was monitored by using the emission value originating from firefly luciferase gene (fluc2P-CRE-hygro) as an indicator. Furthermore, a gene product obtained by fusing renilla luciferase gene in the downstream of CMV promoter (hRluc-CMV) was simultaneously introduced, and this was used as an internal standard for correcting an error in the transgenesis efficiency or the number of cells. The medium was removed from the culture prepared in the above-described section 3) by using a Pipetman, and 75 μl of a solution containing an odor substance (1 mM hexanoic acid or 300 μM nonanoic acid) prepared in CD293 medium (Invitrogen) was added thereto. The cells were cultured for 4 hours in a CO2 incubator, and the luciferase gene was sufficiently expressed in the cells. For the measurement of luciferase activity, the measurement was carried out by using a Dual-Glo™ luciferase assay system (Promega) according to the operation manual of the product. A value calculated by dividing the emission value, derived from a firefly luciferase induced by the stimulation with an odor substance, by the emission value in cells that were not-stimulated with an odor substance, was designated as a fold increase, and used as an index of response intensity.
(§4) OR2W1, OR10A6, OR51E1, OR51I2, and OR51L1 were respectively expressed in HEK293 cells by the same method as that used in Example 1, and a luciferase assay was carried out. In the luciferase assay, hexanoic acid was used as the odorous substance, and test substances were added together with hexanoic acid. The response of the olfactory receptors to hexanoic acid was measured, and a decrease in the receptor response to the addition of test substances was evaluated.
(§5) The inhibition ratios of the receptor response to test substances were calculated as follows. The emission value (Y) obtained from the cells in which the same receptors were introduced but no odor stimulation was conducted, was subtracted from the emission value derived from firefly luciferase (X) induced by odor stimulation with hexanoic acid alone. Similarly, the emission value (Y) obtained from the cells in which no odor stimulation was conducted, was subtracted from the emission value (Z) caused by stimulation with a mixture of hexanoic acid and a test substance. By the following calculation formula, the inhibitory activity of the test substance to receptor response was calculated based on the increment of the emission value (X−Y) caused by stimulation of hexanoic acid alone. Multiple independent experiments were performed in duplicate, and the average of each experiment was obtained. Inhibition ratio (%)={1−(Z−Y)/(X−Y)}×100 […]

OR51E1 = target: T2, OR51E1 (Homo sapiens, UniProt Q8TCB6); assay: Luciferase reporter gene assay, OR51E1 expressed in HEK293 cells; conditions: for Response of OR51E1 to the odor substance: fold increase of luciferase emission, 1 mM hexanoic acid or 300 μM nonanoic acid, or concentration series up to 1000 μM
T2 construct: expressed in transfected cells; host or cells: HEK293
T2 sequence (Q8TCB6 1-318): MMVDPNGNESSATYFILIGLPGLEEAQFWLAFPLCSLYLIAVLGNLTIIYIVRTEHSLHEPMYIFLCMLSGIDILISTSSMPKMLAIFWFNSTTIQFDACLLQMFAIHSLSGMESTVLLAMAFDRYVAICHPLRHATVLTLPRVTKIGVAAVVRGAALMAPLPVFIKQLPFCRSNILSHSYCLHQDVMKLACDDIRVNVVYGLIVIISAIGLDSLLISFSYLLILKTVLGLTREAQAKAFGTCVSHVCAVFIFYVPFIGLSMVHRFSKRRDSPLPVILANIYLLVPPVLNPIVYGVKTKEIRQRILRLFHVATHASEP
Protocol: as §1, §2, §3, §4, §5

OR51L1 = target: T3, OR51L1 (Homo sapiens, UniProt Q8NGJ5); assay: Luciferase reporter gene assay, OR51L1 expressed in HEK293 cells; conditions: for Response of OR51L1 to the odor substance: fold increase of luciferase emission, 1 mM hexanoic acid or 300 μM nonanoic acid, or concentration series up to 1000 μM
T3 construct: expressed in transfected cells; host or cells: HEK293
T3 sequence (Q8NGJ5 1-315): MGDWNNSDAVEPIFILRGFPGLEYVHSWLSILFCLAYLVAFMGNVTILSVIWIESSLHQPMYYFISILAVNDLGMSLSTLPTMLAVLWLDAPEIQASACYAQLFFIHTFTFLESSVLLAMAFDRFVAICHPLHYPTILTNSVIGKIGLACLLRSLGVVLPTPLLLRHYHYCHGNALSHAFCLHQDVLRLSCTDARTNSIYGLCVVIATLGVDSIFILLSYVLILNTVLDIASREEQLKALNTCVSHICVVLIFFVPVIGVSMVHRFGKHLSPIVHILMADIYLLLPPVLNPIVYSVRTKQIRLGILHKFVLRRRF
Protocol: as §1, §2, §3, §4, §5

OR51I2 = target: T4, OR51I2 (Homo sapiens, UniProt Q9H344); assay: Luciferase reporter gene assay, OR51I2 expressed in HEK293 cells; conditions: for Response of OR51I2 to the odor substance: fold increase of luciferase emission, 1 mM hexanoic acid or 300 μM nonanoic acid, or concentration series up to 1000 μM
T4 construct: expressed in transfected cells; host or cells: HEK293
T4 sequence (Q9H344 1-312): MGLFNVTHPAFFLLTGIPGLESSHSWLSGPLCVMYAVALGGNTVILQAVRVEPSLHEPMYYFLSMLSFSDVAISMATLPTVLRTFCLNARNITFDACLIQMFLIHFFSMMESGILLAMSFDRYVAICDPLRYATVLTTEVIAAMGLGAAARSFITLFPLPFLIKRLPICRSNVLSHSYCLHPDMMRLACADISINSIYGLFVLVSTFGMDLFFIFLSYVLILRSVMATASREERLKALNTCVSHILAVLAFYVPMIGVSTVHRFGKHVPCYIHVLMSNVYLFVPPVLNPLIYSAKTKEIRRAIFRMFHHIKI
Protocol: as §1, §2, §3, §4, §5

OR10A6 = target: T5, OR10A6 (Homo sapiens, UniProt Q8NH74); assay: Luciferase reporter gene assay, OR10A6 expressed in HEK293 cells; conditions: for Response of OR10A6 to the odor substance: fold increase of luciferase emission, 1 mM hexanoic acid or 300 μM nonanoic acid, or concentration series up to 1000 μM
T5 construct: expressed in transfected cells; host or cells: HEK293
T5 sequence (Q8NH74 1-314): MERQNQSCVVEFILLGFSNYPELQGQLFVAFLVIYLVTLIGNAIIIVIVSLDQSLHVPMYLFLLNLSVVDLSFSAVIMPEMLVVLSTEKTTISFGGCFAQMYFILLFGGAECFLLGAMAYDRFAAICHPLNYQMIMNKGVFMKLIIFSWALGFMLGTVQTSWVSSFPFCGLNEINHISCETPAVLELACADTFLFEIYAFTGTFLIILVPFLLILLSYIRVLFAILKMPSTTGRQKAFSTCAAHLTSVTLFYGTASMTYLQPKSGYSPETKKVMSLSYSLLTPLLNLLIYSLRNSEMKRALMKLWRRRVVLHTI
Protocol: as §1, §2, §3, §4
The inhibition ratios of the receptor response to test substances were calculated as follows. The emission value (Y) obtained from the cells in which the same receptors were introduced but no odor stimulation was conducted, was subtracted from the emission value derived from firefly luciferase (X) induced by odor stimulation with hexanoic acid alone. Similarly, the emission value (Y) obtained from the cells in which no odor stimulation was conducted, was subtracted from the emission value (Z) caused by stimulation with a mixture of hexanoic acid and a test substance. By the following calculation formula, the inhibitory activity of the test substance to receptor response was calculated based on the increment of the emission value (X−Y) caused by stimulation of hexanoic acid alone. Multiple independent experiments were performed in duplicate, and the average of each experiment was obtained. Inhibition ratio (%)={1−(Z−Y)/(X−Y)}×100

[1] = 1 mM hexanoic acid, test substance 3, 10, 30, 100, 300 μM (FIG. 4)

| Compound | Inhibition of OR2W1 response to hexanoic acid (in words) (OR2W1; [1]) | Inhibition of OR51E1 response to hexanoic acid (in words) (OR51E1; [1]) | Inhibition of OR51L1 response to hexanoic acid (in words) (OR51L1; [1]) | Inhibition of OR51I2 response to hexanoic acid (in words) (OR51I2; [1]) | Inhibition of OR10A6 response (in words) (OR10A6) | Response of OR2W1 to the odor substance (OR2W1) | Response of OR51E1 to the odor substance (OR51E1) | Response of OR51L1 to the odor substance (OR51L1) | Response of OR51I2 to the odor substance (OR51I2) | Response of OR10A6 to the odor substance (OR10A6) |
| --- | --- | --- | --- | --- | --- | --- | --- | --- | --- | --- |
| CC1=CC(C)C(CO)CC1 (stereo not drawn) [floralol, reference compound] | no response inhibiting effect | no response inhibiting effect | no response inhibiting effect | no response inhibiting effect | no response inhibiting effect | – | – | – | – | – |
| CCCCCC(=O)O [hexanoic acid, reference compound] | – | – | – | – | – | exhibited response; also recorded: concentration-dependent response | exhibited response; also recorded: concentration-dependent response | exhibited response; also recorded: concentration-dependent response | exhibited response; also recorded: concentration-dependent response | exhibited response; also recorded: concentration-dependent response |
| CCCCCCCCC(=O)O [nonanoic acid, reference compound] | – | – | – | – | – | exhibited response | exhibited response | – | – | exhibited response |
| cresol [reference compound] | – | – | – | – | – | do not respond | do not respond | do not respond | do not respond | do not respond |
